# Results published in ChEMBL document CHEMBL1201862, “PubChem BioAssay data set” (2004).
# Values joined by “and” are separate entries in the source; they are usually repeats but may differ in a detail not shown here. Identical values can stand only once. Active and inactive are the calls of the source.
# Legend:
# Aminopeptidase N = target: T1, Aminopeptidase N (Plasmodium falciparum FcB1/Columbia, UniProt O96935); test: malaria alanyl aminopeptidase activity blockers – biochemical, fluorogenic H-Leu-NHMec substrate, 1536-well (AID 1445); parameters: species or system Plasmodium falciparum 3D7, 3D7
# T1 sequence (O96935 whole entry): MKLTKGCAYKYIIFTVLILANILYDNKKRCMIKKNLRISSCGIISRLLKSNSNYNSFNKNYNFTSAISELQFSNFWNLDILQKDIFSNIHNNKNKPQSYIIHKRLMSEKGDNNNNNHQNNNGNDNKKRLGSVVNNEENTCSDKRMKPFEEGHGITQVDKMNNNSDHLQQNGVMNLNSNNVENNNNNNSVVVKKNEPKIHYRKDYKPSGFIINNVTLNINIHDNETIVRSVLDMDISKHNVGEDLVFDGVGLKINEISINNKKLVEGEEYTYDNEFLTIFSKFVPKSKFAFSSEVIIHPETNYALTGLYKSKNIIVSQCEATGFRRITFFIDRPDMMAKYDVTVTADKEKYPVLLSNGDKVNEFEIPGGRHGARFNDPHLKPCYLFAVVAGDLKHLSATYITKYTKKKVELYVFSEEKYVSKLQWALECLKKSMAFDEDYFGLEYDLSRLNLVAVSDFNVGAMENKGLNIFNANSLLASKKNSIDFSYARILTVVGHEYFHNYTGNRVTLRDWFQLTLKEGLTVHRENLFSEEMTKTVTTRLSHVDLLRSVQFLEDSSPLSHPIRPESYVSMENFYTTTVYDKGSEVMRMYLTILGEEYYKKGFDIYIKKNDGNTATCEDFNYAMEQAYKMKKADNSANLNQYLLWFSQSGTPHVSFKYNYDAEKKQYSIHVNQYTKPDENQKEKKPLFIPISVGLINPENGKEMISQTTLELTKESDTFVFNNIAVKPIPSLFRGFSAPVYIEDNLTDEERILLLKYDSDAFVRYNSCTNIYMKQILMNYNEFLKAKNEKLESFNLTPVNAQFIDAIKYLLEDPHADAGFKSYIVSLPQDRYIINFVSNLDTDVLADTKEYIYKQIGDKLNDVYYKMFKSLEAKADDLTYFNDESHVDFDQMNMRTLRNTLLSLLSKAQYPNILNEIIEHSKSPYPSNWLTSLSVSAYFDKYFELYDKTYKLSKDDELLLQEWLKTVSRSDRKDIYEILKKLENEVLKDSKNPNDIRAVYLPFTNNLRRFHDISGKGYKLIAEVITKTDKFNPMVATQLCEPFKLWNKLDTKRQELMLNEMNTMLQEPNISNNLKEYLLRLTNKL
# [1] = target: T2, Induced myeloid leukemia cell differentiation protein Mcl-1 (Homo sapiens, UniProt Q07820); test: blockers of MCL1 binding to BIM peptide – biochemical, fluorescence polarization, BIM-BH3 peptide, 1536-well, dose response (AID 2217)
# Bcl-2-like protein 1 = Bcl-2-like protein 1 (Homo sapiens, UniProt Q07817); test: blockers of BCLXL peptide binding – biochemical, fluorescence polarization, 1536-well, selectivity assay for MCL1 inhibitor project, dose response (AID 2218)
# Caspase-6 = target: T3, Caspase-6 (Homo sapiens, UniProt P55212); test: inhibition of CASP6 peptide cleavage – biochemical, VEID-R110 fluorescence, cherry-pick, dose response (AID 720632)
# T3 sequence (P55212 whole entry): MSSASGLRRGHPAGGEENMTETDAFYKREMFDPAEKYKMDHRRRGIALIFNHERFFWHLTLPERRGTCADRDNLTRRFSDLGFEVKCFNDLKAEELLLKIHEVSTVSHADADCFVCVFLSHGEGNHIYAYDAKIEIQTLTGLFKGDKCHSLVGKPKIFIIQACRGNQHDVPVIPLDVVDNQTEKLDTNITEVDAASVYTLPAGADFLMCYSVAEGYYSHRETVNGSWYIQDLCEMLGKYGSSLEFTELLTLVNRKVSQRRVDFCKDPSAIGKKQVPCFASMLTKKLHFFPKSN
# [2] = target: T4, Histone-lysine N-methyltransferase NSD2 (Homo sapiens, UniProt O96028); assay type: biochemical
# T4 sequence (O96028 whole entry): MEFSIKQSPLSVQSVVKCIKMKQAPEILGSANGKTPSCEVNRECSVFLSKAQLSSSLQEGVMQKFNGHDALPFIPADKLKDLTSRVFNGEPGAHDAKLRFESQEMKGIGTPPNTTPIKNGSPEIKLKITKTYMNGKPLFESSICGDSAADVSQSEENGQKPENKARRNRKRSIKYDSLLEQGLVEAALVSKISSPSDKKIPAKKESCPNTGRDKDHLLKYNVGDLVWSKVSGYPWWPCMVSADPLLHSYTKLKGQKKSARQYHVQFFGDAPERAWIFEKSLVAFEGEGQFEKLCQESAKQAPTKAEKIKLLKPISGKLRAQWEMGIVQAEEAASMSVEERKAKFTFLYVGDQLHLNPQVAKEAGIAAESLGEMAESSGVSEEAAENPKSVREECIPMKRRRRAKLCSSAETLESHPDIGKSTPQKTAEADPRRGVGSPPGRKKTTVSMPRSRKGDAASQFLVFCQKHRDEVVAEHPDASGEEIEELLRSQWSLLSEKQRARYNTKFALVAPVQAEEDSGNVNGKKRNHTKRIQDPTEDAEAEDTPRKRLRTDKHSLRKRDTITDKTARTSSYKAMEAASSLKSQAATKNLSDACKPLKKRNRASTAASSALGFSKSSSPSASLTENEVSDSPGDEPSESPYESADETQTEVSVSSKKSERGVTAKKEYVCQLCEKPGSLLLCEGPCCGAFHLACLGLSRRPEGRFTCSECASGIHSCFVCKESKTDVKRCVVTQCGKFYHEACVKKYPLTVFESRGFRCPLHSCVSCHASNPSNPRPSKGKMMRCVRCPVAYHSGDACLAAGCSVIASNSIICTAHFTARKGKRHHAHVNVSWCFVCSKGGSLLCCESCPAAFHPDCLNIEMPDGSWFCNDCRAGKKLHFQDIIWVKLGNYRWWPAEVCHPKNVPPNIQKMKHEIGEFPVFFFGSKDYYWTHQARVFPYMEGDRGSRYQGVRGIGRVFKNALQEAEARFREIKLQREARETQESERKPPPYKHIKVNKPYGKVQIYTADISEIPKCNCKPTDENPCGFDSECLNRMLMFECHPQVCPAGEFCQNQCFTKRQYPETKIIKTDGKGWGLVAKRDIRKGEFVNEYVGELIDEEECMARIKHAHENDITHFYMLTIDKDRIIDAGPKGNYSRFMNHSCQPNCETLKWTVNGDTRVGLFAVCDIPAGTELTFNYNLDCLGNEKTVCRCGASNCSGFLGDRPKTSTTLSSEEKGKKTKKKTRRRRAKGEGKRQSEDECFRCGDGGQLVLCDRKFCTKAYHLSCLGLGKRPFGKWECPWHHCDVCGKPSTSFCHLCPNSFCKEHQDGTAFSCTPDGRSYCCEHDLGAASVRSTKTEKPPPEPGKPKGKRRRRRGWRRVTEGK
# [3] = target: T2, Induced myeloid leukemia cell differentiation protein Mcl-1; assay type: functional
# [4] = target: Bifunctional protein GlmU (Mycobacterium tuberculosis, UniProt P9WMN3); test: Inhibitors of Mycobacterial Glucosamine-1-phosphate acetyl transferase (GlmU). Secondary screen.; parameters: species or system Mycobacterium tuberculosis H37Rv
# [5] = target: DNA (cytosine-5)-methyltransferase 1 (Homo sapiens, UniProt P26358); test: inhibition of DNA methylation by DNMT1 – biochemical, fluorescent molecular beacon, confirmation (AID 602386); assay type: functional
# [6] = A cytotoxicity screen of small molecule inhibitors of the PhoP region in Salmonella typhi identified in the primary screen. [Related pubchem assays: 1850, 1864, 1985 ]; assay type: functional
# [7] = target: Peroxisome proliferator-activated receptor gamma/Nuclear receptor coactivator 3 (Homo sapiens, UniProt P37231); assay type: functional;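 also: agonist potency for raising coactivator recruitment to the receptor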
# [8] = target: Peroxisome proliferator-activated receptor gamma/Nuclear receptor coactivator 1 (Homo sapiens, UniProt P37231); assay type: functional;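 also: agonist potency as compounds enhance coactivator SRC-1 recruitment to PPARgamma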
# [9] = target: Peroxisome proliferator-activated receptor gamma/Nuclear receptor coactivator 2 (Homo sapiens, UniProt P37231); assay type: functional;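 also: agonist potency for raising coactivator recruitment to the receptor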
# Aspartyl aminopeptidase = target: T5, Aspartyl aminopeptidase (Plasmodium falciparum 3D7, UniProt Q8I2J3)
# T5 sequence (Q8I2J3 whole entry): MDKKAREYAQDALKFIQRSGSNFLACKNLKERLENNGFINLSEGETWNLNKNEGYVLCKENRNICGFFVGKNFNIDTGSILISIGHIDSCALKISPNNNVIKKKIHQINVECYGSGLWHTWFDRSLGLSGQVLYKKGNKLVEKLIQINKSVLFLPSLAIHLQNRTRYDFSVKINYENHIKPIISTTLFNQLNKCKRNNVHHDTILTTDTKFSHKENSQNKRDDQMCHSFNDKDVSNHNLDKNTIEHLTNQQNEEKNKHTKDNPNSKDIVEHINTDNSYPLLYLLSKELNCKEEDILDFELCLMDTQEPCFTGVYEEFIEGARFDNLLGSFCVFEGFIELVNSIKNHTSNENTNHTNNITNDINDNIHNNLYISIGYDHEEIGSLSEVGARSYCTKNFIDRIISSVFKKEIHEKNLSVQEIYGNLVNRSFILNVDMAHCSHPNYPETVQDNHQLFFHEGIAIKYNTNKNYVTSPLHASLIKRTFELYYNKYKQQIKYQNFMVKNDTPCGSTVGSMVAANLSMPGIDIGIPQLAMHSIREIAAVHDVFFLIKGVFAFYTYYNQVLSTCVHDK
# Procathepsin L = Procathepsin L (Homo sapiens, UniProt P07711)
# [10] = target: Luciferin 4-monooxygenase (Photinus pyralis, UniProt P08659); test: inhibition of purified Photinus pyralis luciferase – biochemical, luminescence, dose response (AID 1891)
# [11] = Luminescence Cell-Based Dose Confirmation HTS to Identify Inhibitors of Platelet Dense Granule Release. [Related pubchem assays: 1663 (Primary HTS), 1678 (Summary of Project)]; assay type: functional
# [12] = A Cell Based Secondary Assay To Explore Cytotoxicity of Compounds that Sensitize Mycobacterium Tuberculosis to Beta-Lactam Antibiotics.; assay type: functional
# [13] = target: Mothers against decapentaplegic homolog 3 (Homo sapiens, UniProt P84022); test: blockers of Smad3 complex formation in lysate – cell lysate, secondary confirmation, chemiluminescent ELISA, HEK293 lysate, dose response (AID 1058); assay type: functional
# Mothers against decapentaplegic homolog 3, sequence (P84022 whole entry): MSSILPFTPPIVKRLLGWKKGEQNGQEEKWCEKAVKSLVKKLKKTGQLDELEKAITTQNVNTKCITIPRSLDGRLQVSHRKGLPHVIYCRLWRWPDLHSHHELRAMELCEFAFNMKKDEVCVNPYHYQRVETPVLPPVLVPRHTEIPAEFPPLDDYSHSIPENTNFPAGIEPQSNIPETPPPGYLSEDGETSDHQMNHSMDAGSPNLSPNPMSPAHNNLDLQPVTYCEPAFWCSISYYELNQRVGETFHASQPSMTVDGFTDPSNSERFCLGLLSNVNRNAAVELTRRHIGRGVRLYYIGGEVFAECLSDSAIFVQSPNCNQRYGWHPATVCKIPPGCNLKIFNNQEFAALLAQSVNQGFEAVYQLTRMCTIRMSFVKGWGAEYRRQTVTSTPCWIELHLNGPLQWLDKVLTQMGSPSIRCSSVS
# T2 sequence (Q07820 whole entry): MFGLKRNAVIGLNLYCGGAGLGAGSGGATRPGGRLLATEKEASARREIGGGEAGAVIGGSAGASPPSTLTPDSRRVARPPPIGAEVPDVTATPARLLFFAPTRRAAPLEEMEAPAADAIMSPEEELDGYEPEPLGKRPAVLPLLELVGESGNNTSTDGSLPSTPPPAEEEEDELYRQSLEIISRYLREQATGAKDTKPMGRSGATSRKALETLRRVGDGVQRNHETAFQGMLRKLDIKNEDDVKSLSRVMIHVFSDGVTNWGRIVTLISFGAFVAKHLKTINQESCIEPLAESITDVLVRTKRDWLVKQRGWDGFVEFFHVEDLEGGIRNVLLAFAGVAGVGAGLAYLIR
# Peroxisome proliferator-activated receptor gamma/Nuclear receptor coactivator 3, sequence (P37231 whole entry): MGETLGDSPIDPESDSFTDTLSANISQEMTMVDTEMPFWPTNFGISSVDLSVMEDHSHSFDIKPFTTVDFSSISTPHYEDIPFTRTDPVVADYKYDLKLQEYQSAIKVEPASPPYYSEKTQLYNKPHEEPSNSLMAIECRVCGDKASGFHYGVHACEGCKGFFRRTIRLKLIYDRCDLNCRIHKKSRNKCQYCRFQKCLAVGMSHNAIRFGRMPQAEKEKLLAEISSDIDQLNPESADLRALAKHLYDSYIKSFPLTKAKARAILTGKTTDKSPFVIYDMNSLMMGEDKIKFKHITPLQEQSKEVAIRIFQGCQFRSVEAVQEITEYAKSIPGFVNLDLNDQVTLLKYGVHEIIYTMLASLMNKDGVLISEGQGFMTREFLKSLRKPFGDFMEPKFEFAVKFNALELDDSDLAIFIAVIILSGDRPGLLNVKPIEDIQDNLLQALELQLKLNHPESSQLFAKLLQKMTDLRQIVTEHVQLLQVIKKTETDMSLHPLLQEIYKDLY
# Peroxisome proliferator-activated receptor gamma/Nuclear receptor coactivator 3, sequence (Q9Y6Q9 whole entry, further chain): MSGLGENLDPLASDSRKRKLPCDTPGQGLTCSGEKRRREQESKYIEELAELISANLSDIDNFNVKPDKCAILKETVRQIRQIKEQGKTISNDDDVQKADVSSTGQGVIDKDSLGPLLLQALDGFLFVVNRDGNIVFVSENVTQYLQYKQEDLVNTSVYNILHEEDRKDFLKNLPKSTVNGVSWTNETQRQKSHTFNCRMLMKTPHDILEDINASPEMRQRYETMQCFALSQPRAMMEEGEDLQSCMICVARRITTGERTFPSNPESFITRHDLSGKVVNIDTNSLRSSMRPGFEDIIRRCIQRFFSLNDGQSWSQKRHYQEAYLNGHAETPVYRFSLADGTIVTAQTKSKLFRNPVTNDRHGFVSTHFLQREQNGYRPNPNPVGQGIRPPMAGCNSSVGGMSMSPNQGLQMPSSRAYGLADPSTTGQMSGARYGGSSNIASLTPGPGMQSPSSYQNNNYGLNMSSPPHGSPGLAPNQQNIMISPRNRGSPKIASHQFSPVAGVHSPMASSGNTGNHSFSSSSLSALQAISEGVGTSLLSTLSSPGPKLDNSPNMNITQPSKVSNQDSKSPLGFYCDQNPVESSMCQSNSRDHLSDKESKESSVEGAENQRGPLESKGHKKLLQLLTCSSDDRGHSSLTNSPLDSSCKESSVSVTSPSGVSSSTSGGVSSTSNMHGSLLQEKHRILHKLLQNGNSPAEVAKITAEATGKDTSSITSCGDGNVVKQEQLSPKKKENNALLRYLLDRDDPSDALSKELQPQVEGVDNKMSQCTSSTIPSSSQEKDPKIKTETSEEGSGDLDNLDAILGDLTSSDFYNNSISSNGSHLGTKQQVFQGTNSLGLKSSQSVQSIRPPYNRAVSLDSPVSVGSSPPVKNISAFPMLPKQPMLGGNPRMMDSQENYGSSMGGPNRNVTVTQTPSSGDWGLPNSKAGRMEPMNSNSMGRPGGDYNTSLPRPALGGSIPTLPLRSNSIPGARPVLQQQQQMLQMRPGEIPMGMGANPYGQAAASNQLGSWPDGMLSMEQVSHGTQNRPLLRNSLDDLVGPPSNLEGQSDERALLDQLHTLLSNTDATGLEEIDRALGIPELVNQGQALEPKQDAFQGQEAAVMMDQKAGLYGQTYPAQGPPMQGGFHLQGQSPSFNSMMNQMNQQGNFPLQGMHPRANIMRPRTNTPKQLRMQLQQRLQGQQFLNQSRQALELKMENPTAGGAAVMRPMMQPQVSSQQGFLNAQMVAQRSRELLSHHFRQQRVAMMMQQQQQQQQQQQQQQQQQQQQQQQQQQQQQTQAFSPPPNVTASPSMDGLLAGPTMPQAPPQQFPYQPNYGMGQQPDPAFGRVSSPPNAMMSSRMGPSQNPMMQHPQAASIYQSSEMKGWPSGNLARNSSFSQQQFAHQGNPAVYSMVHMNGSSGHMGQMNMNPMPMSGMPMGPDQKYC
# Peroxisome proliferator-activated receptor gamma/Nuclear receptor coactivator 1, sequence (P37231 whole entry): as the sequence (P37231 whole entry) above
# Peroxisome proliferator-activated receptor gamma/Nuclear receptor coactivator 1, sequence (Q15788 whole entry, further chain): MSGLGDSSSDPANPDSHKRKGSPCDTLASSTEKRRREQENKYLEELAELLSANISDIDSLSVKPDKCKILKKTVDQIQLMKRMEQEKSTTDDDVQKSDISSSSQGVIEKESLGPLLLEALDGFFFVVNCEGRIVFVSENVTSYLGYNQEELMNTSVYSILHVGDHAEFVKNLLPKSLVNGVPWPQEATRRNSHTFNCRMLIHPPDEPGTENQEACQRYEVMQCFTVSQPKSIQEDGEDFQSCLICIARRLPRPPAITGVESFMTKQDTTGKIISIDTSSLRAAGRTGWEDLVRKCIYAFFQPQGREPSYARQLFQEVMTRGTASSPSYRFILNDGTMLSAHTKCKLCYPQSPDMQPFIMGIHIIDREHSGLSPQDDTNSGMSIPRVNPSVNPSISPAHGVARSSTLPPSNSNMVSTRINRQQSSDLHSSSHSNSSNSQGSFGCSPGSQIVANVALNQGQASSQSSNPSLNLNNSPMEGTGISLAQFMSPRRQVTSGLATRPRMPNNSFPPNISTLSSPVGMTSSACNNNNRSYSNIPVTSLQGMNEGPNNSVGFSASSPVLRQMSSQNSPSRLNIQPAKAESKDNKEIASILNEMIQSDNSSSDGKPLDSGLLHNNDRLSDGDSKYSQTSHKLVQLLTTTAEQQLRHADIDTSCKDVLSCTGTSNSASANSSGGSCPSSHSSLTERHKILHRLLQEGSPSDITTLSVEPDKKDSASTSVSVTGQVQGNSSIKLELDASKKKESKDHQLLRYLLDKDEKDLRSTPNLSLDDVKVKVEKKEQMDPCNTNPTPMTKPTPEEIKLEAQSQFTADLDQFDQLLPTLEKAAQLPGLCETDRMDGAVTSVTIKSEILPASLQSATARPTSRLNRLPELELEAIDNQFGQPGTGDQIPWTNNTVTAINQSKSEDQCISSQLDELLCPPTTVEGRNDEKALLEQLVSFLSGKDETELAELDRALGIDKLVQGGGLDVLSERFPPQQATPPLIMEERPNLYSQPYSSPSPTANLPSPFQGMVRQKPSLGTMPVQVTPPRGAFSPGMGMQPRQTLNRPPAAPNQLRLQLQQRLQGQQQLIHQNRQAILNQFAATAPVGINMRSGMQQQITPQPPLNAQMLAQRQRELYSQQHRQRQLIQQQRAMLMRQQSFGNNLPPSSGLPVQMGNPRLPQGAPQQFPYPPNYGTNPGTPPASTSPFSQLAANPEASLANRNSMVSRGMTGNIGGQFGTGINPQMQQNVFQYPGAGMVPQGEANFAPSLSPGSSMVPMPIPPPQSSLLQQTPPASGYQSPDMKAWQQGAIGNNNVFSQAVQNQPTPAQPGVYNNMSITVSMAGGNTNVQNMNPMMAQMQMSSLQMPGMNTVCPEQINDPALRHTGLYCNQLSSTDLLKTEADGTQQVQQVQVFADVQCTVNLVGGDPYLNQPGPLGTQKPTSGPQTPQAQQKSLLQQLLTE
# Procathepsin L, sequence (P07711 whole entry): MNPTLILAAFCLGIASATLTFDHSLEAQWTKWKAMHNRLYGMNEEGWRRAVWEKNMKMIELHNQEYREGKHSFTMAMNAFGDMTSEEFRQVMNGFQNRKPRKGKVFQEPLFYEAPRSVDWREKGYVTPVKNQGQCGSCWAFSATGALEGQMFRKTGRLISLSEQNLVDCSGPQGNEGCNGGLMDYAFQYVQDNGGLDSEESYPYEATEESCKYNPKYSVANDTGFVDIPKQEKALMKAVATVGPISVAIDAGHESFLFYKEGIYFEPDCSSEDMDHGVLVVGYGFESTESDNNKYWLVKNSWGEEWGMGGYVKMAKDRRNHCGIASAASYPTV
structure (smiles),measurement,setting,value
O=C(O)c1ccc(-n2cccc2/C=N\NC(=O)c2cc3cc(Br)ccc3o2)cc1,IC50,Aminopeptidase N,37.1 µM (active)
same,IC50,[1],12.1 µM (not active)
same,IC50,Bcl-2-like protein 1,> 109 µM (not active)
same,AC50,Caspase-6,0.801 µM (active)
same,AC50,[2],7.63 µM (active)
same,IC50,[3],1.72 µM (active)
same,IC50,[4],66 µM (active)
same,IC50,[5],4.36 µM (active)
COC(=O)c1c(-c2cccc(C)c2)csc1N,EC50,[6],> 50 µM (active)
Cc1cc(C)c(C#N)c(SCc2cc3c(cc2Cl)OCO3)n1,EC50,[7],> 79.4 µM (not active)
same,EC50,[8],> 79.4 µM (not active)
same,EC50,[9],> 79.4 µM (not active)
Cc1c(C(=O)Nn2cnnc2)oc2ccccc12,IC50,Aspartyl aminopeptidase,0.664 µM (active)
same,IC50,Procathepsin L,> 59.6 µM (not active)
O=C(COC(=O)c1sc2ccccc2c1Cl)NC1CCCCC1,EC50,[7],> 79.4 µM (not active)
same,EC50,[10],> 112 µM (not active)
same,EC50,[11],> 112 µM (not active)
same,EC50,[8],> 79.4 µM (not active)
same,EC50,[9],> 79.4 µM (not active)
CCOC(=O)c1nn(-c2ccc(F)cc2)c2nc(Nc3ccccc3)cc(=O)n12,CC50,[12],> 40 µM (active)
COc1cc(C(=O)NC2CCCCC2)ccc1OCc1ccc(Cl)cc1Cl,CC50,[12],24.7 µM (active)
COc1ccccc1C(c1cc2c(cc1O)OCO2)N1CCOCC1 (stereo unspecified),IC50,[13],35.3 µM (not active) and < 2.5 µM (not active)
O=C(Nc1ccc([N+](=O)[O-])cc1)Nn1cnnc1,IC50,Aspartyl aminopeptidase,1.03 µM (active)
same,IC50,Procathepsin L,> 59.6 µM (not active)
NOC(=O)C1=CC(=C(c2ccc(O)c(C(=O)ON)c2)c2ccc(O)c(C(=O)ON)c2)C=CC1=O,IC50,[13],22.5 µM (not active)
O=C(c1cc2c(s1)-c1ccccc1S(=O)(=O)C2)N1CCN(Cc2ccccc2)CC1,EC50,[6],> 50 µM (active)
